In patent US4921797A, “C-terminal alpha-amidating enzyme and process for production and use thereof” (Hisayuki Matsuo, priority 1986, dated 1990):
Square brackets hold non-standard residues; d marks the D form. Ends that are not written are not given here.

Experiments:
Assay type in all cases: biochemical
[1] = target: T1, C-terminal α-amidating enzyme AE-I (Xenopus laevis, UniProt P08478); test: Effect of substances on enzyme activity of AE-I
T1 construct: C-terminal α-amidating enzymes of the present invention can be extracted from the skin of Xenopus laevis; from tissue; host or cells: Xenopus laevis skin
T1 sequence (P08478 37-400 isoform P08478-2 limits assumed): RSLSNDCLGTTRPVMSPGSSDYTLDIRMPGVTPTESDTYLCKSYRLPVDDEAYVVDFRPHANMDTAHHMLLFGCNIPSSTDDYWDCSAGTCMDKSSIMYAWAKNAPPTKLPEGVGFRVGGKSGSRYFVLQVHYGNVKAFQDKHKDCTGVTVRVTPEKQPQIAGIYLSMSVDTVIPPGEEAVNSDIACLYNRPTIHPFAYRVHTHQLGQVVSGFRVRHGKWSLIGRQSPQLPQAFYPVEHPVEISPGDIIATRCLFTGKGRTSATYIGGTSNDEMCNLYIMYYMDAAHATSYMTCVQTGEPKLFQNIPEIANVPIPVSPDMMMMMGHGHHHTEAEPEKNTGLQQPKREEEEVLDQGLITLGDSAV
Procedure: C-terminal α-amidating enzyme of the present invention is assayed using synthetic peptide [^125 I]-Ac-Tyr-Phe-Gly as a substitute according to the following procedure. [^125 I]-Ac-Tyr-Phe-Gly (1 pmole, 70,000-150,000 cpm) was incubated with an enzyme preparation, in a final volume of 250 μl containing 0.2M Tris-HCl buffer (pH 7.0), 2 μM CuSo4, 0.25 mM ascorbic acid, 25 μg catalase (Boehringer), 0.1% Lubrol (PX type, Nakarai Chemicals). The reaction mixture was kept at 37° C. for 1 to 4 hours. Then 0.75 ml of 1M Tris-HCl buffer (pH 7.0) and 2 ml of the organic phase of an ethyl acetate/water mixture was added. Two phases were mixed vigorously on a Vortex mixer. After centrifugation at 3000 rpm for 3 min, the organic phase thus separated was transferred to another test tube. The radioactivity in organic and aqueous layers was each measured by a gamma scintillation counter. […] The yield of conversion was calculated from the ratio of the radioactivity in ethyl acetate phase to the total radioactivity. In this assay, one unit is defined as an amount of enzyme which converts 50% of added substrate [^125 I]-Ac-Try-Phe-Gly to [^125 I]-Ac-Tyr-Phe-NH2.

[2] = target: T1, C-terminal α-amidating enzyme AE-I; test: Kinetic constants of AE-I from Lineweaver-Burk plots; conditions: standard conditions
Procedure: C-terminal α-amidating enzyme of the present invention is assayed using synthetic peptide [^125 I]-Ac-Tyr-Phe-Gly as a substitute according to the following procedure. [^125 I]-Ac-Tyr-Phe-Gly (1 pmole, 70,000-150,000 cpm) was incubated with an enzyme preparation, in a final volume of 250 μl containing 0.2M Tris-HCl buffer (pH 7.0), 2 μM CuSo4, 0.25 mM ascorbic acid, 25 μg catalase (Boehringer), 0.1% Lubrol (PX type, Nakarai Chemicals). The reaction mixture was kept at 37° C. for 1 to 4 hours. Then 0.75 ml of 1M Tris-HCl buffer (pH 7.0) and 2 ml of the organic phase of an ethyl acetate/water mixture was added. Two phases were mixed vigorously on a Vortex mixer. After centrifugation at 3000 rpm for 3 min, the organic phase thus separated was transferred to another test tube. The radioactivity in organic and aqueous layers was each measured by a gamma scintillation counter. Under the conditions described above, over 98% of radioactivity of the authentic [^125 I]-Ac-Tyr-Phe-Gly was retained in an aqueous phase and over 98% of radioactivity of the authentic [^125 I]-Ac-Tyr-Phe-NH2 was transferred to an organic phase. The yield of conversion was calculated from the ratio of the radioactivity in ethyl acetate phase to the total radioactivity. In this assay, one unit is defined as an amount of enzyme which converts 50% of added substrate [^125 I]-Ac-Try-Phe-Gly to [^125 I]-Ac-Tyr-Phe-NH2.

[3] = target: T1, C-terminal α-amidating enzyme AE-I; test: Conversion of substrate peptides to C-terminal α-amidated products by AE-I (reverse-phase HPLC); conditions: same procedure as Example 3; rates Tyr-Phe-Gly>Ac-Tyr-Phe-Gly>D-Tyr-Val-Gly>D-Tyr-Gly-Gly
Procedure: The 0.1 μg of the enzyme preparation AE-I prepared in Example 1 was incubated with 4 nmoles of Tyr-Gly-Gly-Phe-Met-Arg-Arg-Val-Gly as a substrate in 250 μl of a 0.2M Tris-HCl buffer (pH 7.0) containing 2 μM CuSO4, 0.25 mM ascorbic acid, 25 μg catalase, and 0.1% Lubrol, at 37° C. for 24 hours. After the reaction was terminated by the addition of 250 μl of 1% trifluoroacetic acid, the reaction mixture was applied to a TSK ODS-120A column (0.4×25 cm; Toyosoda), and elution was carried out using a linear gradient of 12 to 60% CH3 CN in 0.1% trifluoroacetic acid at a flow rate of 1.5 ml/min. The elute was analyzed for absorbance at 210 nm. FIG. 7A represents an elution pattern for a sample of the reaction mixture taken at 0 time, i.e., before the reaction, and FIG. 7B represents an elution pattern for a sample of the reaction mixture taken 24 hours after the reaction has started. […] In FIG. 7, arrows b and a represent positions at which the peaks of authentic substrate and authentic adrenorphin Tyr-Gly-Gly-Phe-Met-Arg-Arg-Val-NH2 respectively appear under the same condition. Adrenorphin corresponds to a peptide wherein C-terminal glycine has been converted to α-amide. Since the positions 1 and 2 match the positions a and b respectively, it is reasonable to assume that the reaction product corresponding to peak 1 is adrenorphin. This means that the enzyme of the present invention amidated the substrate at its C-terminal. To confirm this conclusion, the fraction 1 in FIG. 7 was hydrolyzed in 6M HCl at 110° C. for 24 hours, and the amino acid composition of the hydrolyzate was analyzed using an amino acid analyzer. Moreover, the presence of the C-terminal amide group in the fraction 1 was analyzed by thermolysin digestion followed by thin layer chromatography. All of the results confirmed that the reaction product is adrenorphin.
The same procedure as described in Example 3 was repeated except that, in place of Tyr-Gly-Gly-Phe-Met-Arg-Arg-Val-Gly(FIG. 8Δ), following substrates were used: […]

In the case of O[C@H](CS)[C@H](O)CS (racemic) [dithiothreitol], the “Effect on enzyme activity” value ([1]; 1 mM dithiothreitol) was “inhibited”.
O=S(=O)([O-])[O-].[Cu+2] [CuSO4] was tested, and the “Effect on enzyme activity inhibited by the thiol compound” value ([1]; additional 1.2 mM CuSO4 in presence of 1 mM dithiothreitol) was “restores the enzyme activity” and the “Effect on enzyme activity inhibited by EDTA” value ([1]; additional more than 0.12 mM CuSO4 in presence of 0.1 mM EDTA) was “restores the enzyme activity”.
For [Cu+2] [Cu^++], the “Requirement of Cu++ cation for enzyme activity” value [1] was “essential”.
With O=C(O)CN(CCN(CC(=O)O)CC(=O)O)CC(=O)O [EDTA] the “Effect on enzyme activity” value ([1]; 0.1 mM EDTA) was “inhibited”.
With CCN1C(=O)C=CC1=O [N-ethylmaleimide] the “Effect on enzyme activity inhibited by the thiol compound” value ([1]; 5 mM N-ethylmaleimide in presence of 1 mM dithiothreitol) was “restores the enzyme activity”.
Ac-Tyr-Phe-Gly was tested, and the Km [2] was 0.35 µM, the Vmax [2] was 1.9 nmol/µg/h and the “Conversion of substrate by AE-I (FIG. 8)” value [3] was “converted to the corresponding des-Gly peptide α-amides”.
“Tyr-Gly-Gly-Phe-Met-Arg-Arg-Val [desamido-adrenorphin]” was tested, and the “Conversion of substrate by AE-I (FIG. 8)” value [3] was “not affected by the enzyme”.
Tyr-Phe-Gly was tested, and the “Conversion of substrate by AE-I (FIG. 8)” value [3] was “converted to the corresponding des-Gly peptide α-amides”.
For YGGFMRRVGRPE [BAM-12P], the “Conversion of substrate by AE-I (FIG. 8)” value [3] was “not affected by the enzyme”.
With [dY]-Gly-Gly the “Conversion of substrate by AE-I (FIG. 8)” value [3] was “converted to the corresponding des-Gly peptide α-amides”.
For [dY]-Val-Gly, the “Conversion of substrate by AE-I (FIG. 8)” value [3] was “converted to the corresponding des-Gly peptide α-amides”.
